One assay addresses T1, Cdk2 (Mus musculus, UniProt P97377).
T1 construct: Cdk2 complexes were immunoprecipitated from ventricular lysates from each of the indicated treatment groups; from tissue; host or cells: mouse heart ventricle (C57/BL6 mice, treated in vivo)
The assay can be described thus: Cdk2 immune complex kinase assay on ventricular lysates of treated mice (histones H1 as substrate). The class given is in vivo. The following applies: DETA/NO 0.1 mg/kg x 4 i.v. 24 hours before I/R, compared to vehicle-treated hearts. The method, then: Complexes were immunoprecipitated from 300 μg of total protein lysates from each of the indicated treatment groups. ^32P-labeling of histones H1 was measured using a standard Cdk2 kinase assay.
Ventricular lysates were probed for the indicated proteins.
Western blotting was performed using the identical protein lysates. Antibodies were purchased from Santa Cruz Biotechnology (Santa Cruz). Protein expression was visualized using horseradish peroxidase-conjugated second antibodies and enhanced chemiluminescence reagents (Amersham Biosciences). Nonsaturated autoradiographs were quantitated with SigmaScan.
Cdk2 complexes were immunoprecipitated from ventricular lysates from each of the indicated treatment groups.

In another assay the test system is C57/BL6 mice. The class given is in vivo, mouse. The method, then:
Complexes were immunoprecipitated from 300 μg of total protein lysates from each of the indicated treatment groups. ^32P-labeling of histones H1 was measured using a standard Cdk2 kinase assay. […] IFS in DETA/NO-treated mice compared to control Vehicle-treated mice are shown (*P<0.05; n=4 per group).
IFS in Roscovitine-treated mice compared to control vehicle-treated mice are shown (*P<0.001; n=6 per group). […] Ventricular lysates were probed for the indicated proteins. Mean IFS sizes after 24 hours of reperfusion are shown. (*P<0.05 for Cdk2^+/+ versus Cdk2^−/− IFS; n=5 per group).
Male mice were subjected to myocardial ischemia/reperfusion as previously described (Wang, G., et al. 2005. Am. J. Physiol. Heart Circ. Physiol 288:H1290-H1295). Pentobarbital-anesthetized (50 mg/kg body wt i.p.) mice were intubated for positive pressure ventilation with oxygen-enriched room air during the surgical procedure. After left thoracotomy between ribs three and four, the pericardium was opened and a silk 8-0 suture was looped under the left anterior descending coronary artery 1-3 mm from the tip of the normally positioned left atrium. Ischemia was induced by ligation of the suture (a 1 to 2 mm section of PE-10 tubing was placed between the suture and the artery to prevent damage to the vessel). Rectal temperature was continuously measured and maintained at 36.5-37.5° C. Following a 30-min coronary artery occlusion, the suture was removed to allow coronary reperfusion followed by closure of the chest wall. After 24 hours of coronary artery reperfusion the heart was excised and postmortem perfused as previously described (Wang, G., et al. 2005. Am. J. Physiol. Heart Circ. Physiol 288:H1290-H1295). The infarct region was determined by perfusion with a 1% solution of 2,3,5-triphenyltetrazolium chloride (TTC) in phosphate buffer (pH 7.4, 37° C.). To delineate the risk region, the coronary artery was tied at the site of the previous occlusion and the aortic root perfused with a 1% solution of Evans blue dye. Infarct size was measured by planimetry with NIH Image and expressed as a percentage of the area at risk.
Limitation of IFS by pharmacological delayed preconditioning of the heart was induced with the nitric oxide donor diethylenetriamine/nitric oxide (DETA/NO) as previously reported (Wang, G., et al. 2005. Am. J. Physiol. Heart Circ. Physiol 288:H1290-H1295). After dissecting free the left jugular vein in pentobarbital-anesthetized WT mice, DETA/NO was given in 4 boluses 24-hours prior to 30-min coronary artery occlusion (0.1 mg/kg×4, i.v.).

Where two headings read alike, the source gives them in different places.

For `NCCN(CCN)/[N+]([O-])=N/O` [DETA/NO, diethylenetriamine/nitric oxide], the “Cdk2 activity in hearts after 30 minutes of ischemia” value at Cdk2 is listed as “decreased Cdk2 activity”; at Cdk2 (listed as NO donor), “blocked the upregulation of Cdk2”. In the assay on C57/BL6 mice (DETA/NO 0.1 mg/kg x 4 i.v. 24 hours before 30-min coronary occlusion, wildtype mice, mean ± SEM, P<0.05 vs vehicle, n=4 per group), the “infarct size (IF % of the A@R)” value is recorded as 35.0±3.7 IF % of the A@R. Further, the “reduction in infarct size compared to vehicle treated mice” value with C57/BL6 mice (DETA/NO 0.1 mg/kg x 4 i.v. 24 hours before I/R injury, vs vehicle) stood at 32%.

Take `CC[C@H](CO)Nc1nc(NCc2ccccc2)c2ncn(C(C)C)c2n1` [Roscovitine, 6-Benzylamino-2-(R)-[(1-ethyl)-2-hydroxyethylamino]-9-isopropyl-purine]: the “reduction in infarct size compared to vehicle treated mice” value in the assay on C57/BL6 mice (Roscovitine 2.8 mg/gm i.p. two hours prior to ischemia, 30 min occlusion, 24 h reperfusion, vs DMSO vehicle) was determined as 36.7%. Besides, the “infarct size (IFS % of A@R)” value in the assay with C57/BL6 mice (Roscovitine 2.8 mg/gm intraperitoneally two hours prior to ischemia, 30 min LAD occlusion, 24 h reperfusion, mean ± SEM, P<0.001 vs vehicle (DMSO), n=6 per group) is on record as 34.2±2.6 IFS % of A@R.
